In one assay the target is T1, AtSPP-GFP (Arabidopsis thaliana, UniProt O81062).
T1 construct: gene SPP; full length with C-terminal yEGFP-octa-His tag kept, expressed in Saccharomyces cerevisiae BY2777; DDM-solubilised yeast membranes; estimated 65 kDa
T1 sequence (O81062 1-344): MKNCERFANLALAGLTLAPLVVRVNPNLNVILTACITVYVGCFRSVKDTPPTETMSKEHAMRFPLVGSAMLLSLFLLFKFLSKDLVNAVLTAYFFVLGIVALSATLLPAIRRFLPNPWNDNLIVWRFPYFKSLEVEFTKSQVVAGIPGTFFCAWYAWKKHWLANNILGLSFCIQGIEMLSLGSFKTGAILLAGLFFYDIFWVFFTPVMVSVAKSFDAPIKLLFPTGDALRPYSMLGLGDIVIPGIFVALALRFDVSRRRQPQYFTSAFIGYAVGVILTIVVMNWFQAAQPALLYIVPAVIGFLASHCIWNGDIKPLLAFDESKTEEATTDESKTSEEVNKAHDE
Kind of assay: gel immunoblot cleavage assay of myc-Prl-PP-FLAG with DDM-solubilised membranes. The format is biochemical. The settings on record: 1 μM myc-Prl-PP-FLAG substrate, 0.25% DDM, 37°C, 15 h; 50 μM inhibitor. (Immunoblotting shows a protein as a band on a membrane.)

Another assay addresses T2, native human SPP (HsSPP) (Homo sapiens, UniProt Q8TCT9).
T2 construct: gene HM13; endogenous, untagged, in DDM-solubilised membrane fraction of HEK293T cells
T2 sequence (Q8TCT9 1-377): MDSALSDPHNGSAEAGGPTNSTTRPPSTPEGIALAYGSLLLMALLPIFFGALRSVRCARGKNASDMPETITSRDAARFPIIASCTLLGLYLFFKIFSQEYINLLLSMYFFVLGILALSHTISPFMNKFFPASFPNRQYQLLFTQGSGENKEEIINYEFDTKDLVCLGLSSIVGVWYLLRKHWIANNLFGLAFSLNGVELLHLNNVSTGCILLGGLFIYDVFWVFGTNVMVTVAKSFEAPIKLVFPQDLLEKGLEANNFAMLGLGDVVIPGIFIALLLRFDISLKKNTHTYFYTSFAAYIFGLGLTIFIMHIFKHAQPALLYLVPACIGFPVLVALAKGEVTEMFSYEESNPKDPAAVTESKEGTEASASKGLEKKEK
The description is as above. To be noted: 1 μM myc-Prl-PP-FLAG substrate, 0.25% DDM, 37°C; 10 μM inhibitor. The format is biochemical.

`CC(C)C[C@H](NC(=O)OCc1ccccc1)C(=O)N[C@@H](CC(C)C)C(=O)NCC(=O)CNC(=O)[C@H](CC(C)C)NC(=O)[C@H](CC(C)C)NC(=O)OCc1ccccc1` [(Z-LL)2-ketone, 1,3-di-(N-carboxybenzoyl-L-leucyl-L-leucyl) amino acetone]: the “inhibition at 50 μM” value against AtSPP-GFP is recorded as “rate of proteolytic activity of AtSPP-GFP was weak, the activity was inhibited by the (Z-LL)2-ketone”. On native human SPP (HsSPP), the “inhibition at 10 μM” value was “the SPP was inhibited by the (Z-LL)2-ketone”.

These data come from article PMC3710259, “Experimental detection of proteolytic activity in a signal peptide peptidase of Arabidopsis thaliana” (BMC Biochemistry, 2013).
